Laboratory results taken from patent US7576177B2, “Hsp peptides and analogs for modulation of immune responses via antigen presenting cells” (Andromeda Biotech Ltd., priority 2002, dated 2009).

Tests used:
mouse monocyte line J774 = assay: Secretion of oxygen free radicals (oxidative burst) from mouse monocyte line; format: cell-based; settings: J774, FIG. 5
[1] = tested on: BALB/c DO.11.10 bone marrow cells cultured for dendritic cells, cocultured with DO.11.10 T cells; assay: Education of mouse dendritic cells and stimulation of T-cells, cytokine content of supernatant; format: cell-based
Description: Whelan et al. (J. Immunol 164, 6453-6460, 2000) addressed the problem in mice by an experiment in which mouse bone marrow cells were grown for 6 days in culture with GM-CSF to give immature dendritic cells. These dendritic cells were then incubated overnight with LPS (known to drive cells to DC1) or with a nematode antigen. The reason for the choice of nematode antigen was that injection of this antigen in vivo gives rise to a Th2 response in animals. After this so-called “education” of the dendritic cells, they were washed and subsequently incubated with naive T cells in the presence of antigenic stimulus. The experiment was possible because of the use of transgenic mice in which all the T cells respond to the same peptide (OVA323-339) which absolves the system from any question of bias of the T cell response at the level of the T cells. Any bias should be a consequence of the “education” of the dendritic cells. After three days of incubation the cytokine responses produced by the T cells, were measured by ELISA. […] In contrast, nematode antigen incubation gave rise to more IL-4 (Th2) than did controls while the LPS incubation inhibited the IL4 response. Therefore, the nematode antigen was said to drive cells to DC2. A similar method was used for testing the compounds of the present invention: • 1. Bone marrow cells were extracted from the leg bones of DO.11.10 mice transgenic for the TcR. All cells from these mice respond to the OVA peptide ([…]). • 2. Bone marrow cells were plated at 10^6 cells/ml in 100 mm diameter tissue culture petri dishes in Iscove's medium supplemented with 10% FCS, […], 1 mM sodium pyruvate, penicillin/streptomycin (according to manufacturer's recommendations), non-essential amino acids, 50 μM β-mercaptoethanol and 10 ng/ml mGM-CSF. • 3. After 4 days, the medium was carefully removed and replaced with fresh medium • 4. After 6 days, the non-adherent cells were harvested and used as immature dendritic cells • 5. The immature dendritic cells are plated at 1×10^6 cells/ml, 1 ml/well in 24 well plates in the above medium with various reagents added at various concentrations and incubated overnight. This is the stage in which the dendritic cells are “educated” • 6. The next day the cells were harvested and washed 3 times then resuspended at 5×10^4 cells/ml in 1 ml of the above medium but without the addition of GM-CSF to be cocultured with T cells • 7. […] 5×10^5 T cells were cultured with the dendritic cells from step 6 in the presence of various concentrations of the OVA peptide (0, 0.3 nM, 3 nM and 30 nM). • 9. After 3 days PMA (50 ng/ml) and ionomycin (500 ng/ml) were added to further stimulate the cells. • 10. The next day the cell supernatants were collected and assayed for cytokine content (Interferon γ, IL4, IL-10 and IL-12).
The compound was tested for stimulation of DO.11.10 bone marrow cells according to the assay described above (Production and education of mouse dendritic cells and stimulation of T-cells).
BALB/c DO.11.10 bone marrow cells were cultured for dendritic cells and then stimulated with LPS 1 μg/ml, LPS 10 μg/ml, hsp60 3 μg/ml, hsp60 10 μg/ml, p277 5 μg/ml and p277 50 μg/ml. The cells were then transferred to wells with T cells from fresh BALB/c DO.11.10 mice and stimulated with OVA peptide at different concentrations (0, 0.3 nM, 3 nM, 30 nM). Supernatant was collected after 48 hours for assay. 30 μl was taken for IFN, 40 μl for IL4 and IL-10 and 50 μl for IL-12 assays. The results are presented in the following tables, as amount of cytokine (pg/ml), and in FIG. 1.

[2] = tested on: peripheral blood mononuclear cells cultured with GM-CSF and IL4 (dendritic cells); assay: Peripheral blood derived dendritic cells: secreted cytokines (IP-10, IL-8) and cell surface antigens (CD83, CD86); format: cell-based, human
Description: The effect of the compositions of the present invention on peripheral blood derived dendritic cells, was tested according to a protocol described by Re, F. and Strominger, J. L. 2001. Toll-like receptor 2 (Tlr2) and Tlr4 differentially activate human dendritic cells. (J Biol Chem 276: 37692-9). According to this method immature dendritic cells derived from human peripheral blood are used. The outcome after incubating the cells with tested molecules is different if the stimulation is through the Toll 4 receptor or the Toll 2 receptor. According to the authors, Toll 2 signaling by stimulation with zymosan is associated with a Th2 kind of response (exemplified by IL-8) and Toll 4 signaling, such as obtained by LPS stimulation (exemplified by IP-10), with a Th1 type of response. The compositions of the present invention were tested using a similar assay system in order to check which stimulation type they induce. […] The increase in CD86 expression after exposure of APCs to Hsps or Hsp derived peptides is important since CD86 (B7.2) is an essential component of the immunological synapse formed between T cells and APC. This synapse consists of CD80 and CD86 on the side of the APC and CD28 and CD40 on the side of the T cell. T cell recognition of peptide on APC without the concurrent expression of CD86 gives rise to anergy instead of a T cell response. Therefore in order to produce a response all components must be present.
The assay was based on the protocol described by Re, F. and Strominger, J. L. 2001. Toll-like receptor 2 (Tlr2) and Tlr4 differentially activate human dendritic cells. (J. Biol Chem 276: 37692-9).
Peripheral blood mononuclear cells were prepared from leucocytes from blood lots obtained from the blood bank. The cells were plated at 10^8 cells/10 ml/Petri dish in RPMI medium including 10% FCS and allowed to adhere at 37° C. for 2 hours. At the end of this time, the non-adherent cells were washed off the plates with PBS and the adherent cells resuspended in fresh medium as before. The cells were then cultured for at least 8 days with the addition of GM-CSF and IL4 with the medium changed every 4 days. After this time, the cells were harvested and cultured overnight with LPS, zymosan or p277(Val^6-Va^11). The next day, the supernatant was collected for assay of the secreted cytokines (IP-10 and IL-8) and the cells were harvested for investigation of the cell surface antigens (CD83, CD86). CD83 is an antigen characteristic of dendritic cells. […] The second marker, CD86 (B7.2) is characteristic of mature dendritic cells. The marker CD86 is an essential component of the immunological synapse formed between T cells and APC. This synapse consists of CD80 and CD86 on the side of the APC and CD28 and CD40 on the side of the T cell. This is of course in addition to the specific recognition between the T cell receptor and peptide held in the MHC of the APC. T cell recognition of peptide on APC without the concurrent expression of CD86 gives rise to anergy instead of a T cell response.

[3] = compared with non-exposed dendritic cells
[4] = dendritic cells educated with 1 μg/ml, 0.3 nM Ova peptide
[5] = dendritic cells educated with 10 μg/ml, 0.3 nM Ova peptide

| Substance | inhibition of the oxidative burst (secretion of oxygen free radicals) (mouse monocyte line J774) | IFN gamma produced by T cells after treatment of dendritic cells (in words) [1, 3] | IL-4 produced by T cells after exposure of dendritic cells (in words) [1, 3] | IL-4 secretion of T cells [1, 4] [pg/mL] | IL-10 secretion of T cells [1, 4] [pg/mL] | IL-12 secretion of T cells [1, 4] [pg/mL] | IFN secretion of T cells ([1]; dendritic cells educated with 1 μg/ml, T cells stimulated with 0.3 nM Ova peptide) [pg/mL] | IFN secretion of T cells [1, 5] [pg/mL] | IL-4 secretion of T cells [1, 5] [pg/mL] | IL-10 secretion of T cells [1, 5] [pg/mL] | IL-12 secretion of T cells [1, 5] [pg/mL] | maturation: percentage of cells stained with anti-CD86 ([2]; overnight stimulation, FIG. 3) | IL-8 ([2]; stimulus 10 ng/ml, overnight) [pg/mL] | IP-10 ([2]; stimulus 10 ng/ml, overnight) [pg/mL] |
| --- | --- | --- | --- | --- | --- | --- | --- | --- | --- | --- | --- | --- | --- | --- |
| VALLRVIPA (Homo sapien) [p277(442-450, Val^6Val^11)] | effective | – | – | – | – | – | – | – | – | – | – | – | – | – |
| lipopolysaccharide [LPS, reference compound] | – | increased IFN gamma | decreased IL4 | 11.07 | 15.26 | 90.00 | 328.33 | 478.89 | 1.07 | 75.48 | 131.25 | increase of maturation | 3131 | 2520 |
